Laboratory results published in patent US20260116884A1, “PROTAC CHIMERIC COMPOUND, PREPARATION METHOD THEREFOR AND USE THEREOF” (HANGZHOU ZHONGMEIHUADONG PHARMACEUTICAL CO., LTD., priority 2022, published 2026).
pEC50, pIC50: −log10 of the molar value.

Legend:
human HPK1 [1] = biological target: T1, human HPK1 (Homo sapiens, UniProt Q92918); assay: Assay of in vitro HPK1 enzymatic activity (ADP-Glo); type: biochemical; settings: 7 nM kinase, 20 uM ATP
Method: Compounds were evaluated for their ability to inhibit human HPK1 by IC50 determination using the ADP-Glo method to measure the kinase activity.
Buffer conditions of the enzyme: 50 mM Hepes (pH 7.5), 10 mM MgCl2, 1 mM EGTA, 0.01% Brij35, 2 mM DTT.
Preparation of the Kinase and substrate mixture: the working concentration of the kinase in the HPK1 reaction solution was 7 nM and the working concentration of ATP was 20 uM.
The compound was diluted with DMSO in a dilution plate, with a maximum starting concentration of 1 uM and 10 concentration gradient points (4-fold dilution).
Each of the above 10 concentration gradient points of the compound was then diluted 50-fold into the kinase reaction buffer and shaken on a shaker for 20 min. The kinase was prepared in an enzyme reaction buffer and 2 μl of the HPK1 kinase was added per well of the reaction plate at a HPK1 kinase concentration of 7 nM.
1 μl of diluted compound in the buffer was added per well, and the plate was sealed with a plate sealing film, centrifuged at 1000 g for 30 seconds, and left at room temperature for 10 minutes. An ATP solution was prepared with an enzyme reaction buffer and 2 μl of the ATP solution was added to the reaction plate (the working concentration of ATP was 20 uM). The plate was sealed with a plate sealing film, centrifuged at 1000 g for 30 seconds, and reacted at room temperature for 60 minutes. 4 μL of ADP-Glu was transferred to a 384 reaction plate, centrifuged at 1000 rpm/min for 1 min, and incubated at 25° C. for 40 min. 8 μL of the Detection solution was transferred to a 384 reaction plate, centrifuged at 1000 rpm/min for 1 min, and incubated at 25° C. for 40 min. The RLU (Relative luminescence unit) signal was read using a BMG microplate reader, and the signal intensity was used to characterize the activity level of the kinase.
The kinase activity data was expressed by comparing the kinase activity of the test compound and the blank group (containing only DMSO), and the IC50 value was obtained by curve fitting using the Prism software (GraphPad7.0).

[2] = tested on: IL2 activation in human PBMC; assay: IL2 activity assay (ELISA) in human PBMC; type: cell-based; settings: CD3/CD28 antibody, 24 h
Method: The compound was diluted with DMSO in a dilution plate, with a maximum starting concentration of 10 μM, 8 concentration gradient points (3-fold dilution), and then added to the 96-well plate along with the addition of 5 µg/ml CD28 antibody. Incubation was performed for 24 h. • (3) The ELISA plate was washed twice with PBS, and an ELISA dilution was added at 100 µl/well. Then 100 μl of the standard and the incubated samples obtained in step 2 were added separately, and incubated for 2 h at room temperature. • (4) Each well was washed 3 times by adding with 400 μl washing buffer per well, and was finally blotted to dryness with a clean absorbent paper. • (5) 200 μl of the IL2 conjugate was added per well, covered with a fresh tape, and incubated for 2 h at room temperature. Step (4) was repeated. • (6) 200 μl of the substrate was added per well under the protection from light. The plate was incubated at room temperature for 20 min. • (7) 50 μL of a stop solution was added per well. The color of the wells should be from blue to yellow. Signals at […] were read by a microplate reader, and the signal intensity was used to characterize the activity level of IL2. EC50 values were obtained by fitting using the Prism software.

human HPK1 [3] = biological target: T1, human HPK1; assay: HPK1 protein degradation assay (WB) in RAMOS cell line; type: cell-based; design: The RAMOS cell line was selected as the degradation cell line; endogenous in cells; host or cells: RAMOS; settings: RAMOS cells, 16 h, Western blot
Method: Degradation of HPK1 proteins and DC50/Dmax were determined by the WB method in order to evaluate the in vitro degradative ability of the compound.
The RAMOS cell line was selected as the degradation cell line. Incubation Conditions: RMPI 1640 culture medium supplemented with 10% FBS, 37° C., 5% CO2.
• (1) Plating cells: in a 6 cm dish with 4 ml of the culture medium, cells plated at 2×10^6 cells/dish. • (2) Drug addition: the compound (stock solution concentration: 10 mM) was diluted with DMSO in a dilution plate, with a maximum starting concentration of 10 μM and 7 concentration gradient points (3-fold dilution). 4 μl of each diluted solution was taken, added to a dish, and incubated for 16 h. • (3) Cells were harvested, added with a lysis buffer, and centrifuged at 12000 rpm/min for 20 min. The supernatant was collected. After quantification using a BCA quantification kit, 5× loading buffer was added to denature for 10 min. • (4) 10 μg of denatured protein was added to the SDS-PAGE gel. After electrophoresis and membrane transfer, the plate was blocked with 5% BSA for 1 h, incubate with the primary antibody at 4° C. overnight. After washing off the primary antibody, the secondary antibody was added, incubated at room temperature for 1 h, and washed off.
Imaging: the membranes were scanned with a two-color fluorescence imaging system.

T1 sequence (Q92918 whole entry): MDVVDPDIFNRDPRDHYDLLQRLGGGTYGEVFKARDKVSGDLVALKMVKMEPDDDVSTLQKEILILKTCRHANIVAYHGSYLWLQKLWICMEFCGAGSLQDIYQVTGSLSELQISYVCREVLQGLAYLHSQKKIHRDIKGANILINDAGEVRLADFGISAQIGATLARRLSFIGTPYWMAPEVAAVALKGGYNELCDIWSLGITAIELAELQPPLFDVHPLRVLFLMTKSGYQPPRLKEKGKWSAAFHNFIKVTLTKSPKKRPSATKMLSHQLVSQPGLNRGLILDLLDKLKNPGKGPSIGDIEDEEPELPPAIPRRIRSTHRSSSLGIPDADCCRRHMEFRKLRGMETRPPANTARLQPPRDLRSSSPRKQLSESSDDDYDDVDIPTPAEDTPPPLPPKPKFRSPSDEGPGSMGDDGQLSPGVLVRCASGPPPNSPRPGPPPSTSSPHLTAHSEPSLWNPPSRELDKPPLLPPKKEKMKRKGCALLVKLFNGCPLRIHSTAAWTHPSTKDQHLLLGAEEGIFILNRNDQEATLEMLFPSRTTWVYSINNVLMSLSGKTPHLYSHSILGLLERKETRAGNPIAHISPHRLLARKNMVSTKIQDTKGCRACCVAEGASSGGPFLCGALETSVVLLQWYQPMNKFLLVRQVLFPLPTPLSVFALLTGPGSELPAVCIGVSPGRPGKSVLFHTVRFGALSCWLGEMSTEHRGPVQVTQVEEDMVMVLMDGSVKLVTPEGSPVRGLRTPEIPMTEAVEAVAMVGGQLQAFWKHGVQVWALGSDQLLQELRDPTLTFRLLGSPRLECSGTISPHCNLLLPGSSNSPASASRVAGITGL

Compound	pIC50 (human HPK1 [1])	other results
CCN1CCC(n2cc(-c3c[nH]c4ncc(-c5cnc(N6CCN(CC7CN(c8cccc9c8C(=O)N(C8CCC(=O)NC8=O)C9=O)C7)CC6)c(C)c5)nc34)cn2)CC1 (stereo not shown) [Compound C012]	8.72	–
CCN1CCC(n2cc(-c3c[nH]c4ncc(-c5cnc(OC6CCN(C(=O)c7cccc(N8CCC(=O)NC8=O)c7)CC6)c(C)c5)nc34)cn2)CC1 [Compound C014]	8.82	–
CCN1CCC(n2cc(-c3c[nH]c4ncc(-c5cnc(OC6CN(C(=O)c7cccc(N8CCC(=O)NC8=O)c7)C6)c(C)c5)nc34)cn2)CC1 [Compound C015]	8.21	–
CCN1CCC(n2cc(-c3c[nH]c4ncc(-c5cnc(OCCNC(=O)c6cccc(N7CCC(=O)NC7=O)c6)c(C)c5)nc34)cn2)CC1 [Compound C016]	7.82	–
CCN1CCC(n2cc(-c3c[nH]c4ncc(-c5cnc(OC6CCN(C(=O)c7cccc(N8CCC(=O)NC8=O)c7)CC6)c(C)c5)nc34)cn2)CC1 [Compound C019]	8.70	–
CCN1CCC(n2cc(-c3c[nH]c4ncc(-c5ccc(N6CCN(CC7CCN(C(=O)c8ccc(Cl)c(N9CCC(=O)NC9=O)c8)CC7)CC6)nc5)nc34)cn2)CC1 [Compound C020]	8.26	–
CCN1CCC(n2cc(-c3c[nH]c4ncc(-c5ccc(OCCN6CCC(NC(=O)c7ccc(Cl)c(N8CCC(=O)NC8=O)c7)CC6)nc5)nc34)cn2)CC1 [Compound C023]	8.19	–
CCN1CCC(n2cc(-c3c[nH]c4ncc(-c5ccc(N6CCN(C(=O)CCOCCNc7cccc8c7C(=O)N(C7CCC(=O)NC7=O)C8=O)CC6)nc5)nc34)cn2)CC1 (stereo not shown) [Compound C025]	8.06	–
CCN1CCC(n2cc(-c3c[nH]c4ncc(-c5ccc(N6CCN(C(=O)CCCCCNc7cccc8c7C(=O)N(C7CCC(=O)NC7=O)C8=O)CC6)nc5)nc34)cn2)CC1 (stereo not shown) [Compound C026]	8.80	–
CCN1CCC(n2cc(-c3c[nH]c4ncc(-c5ccc(N6CCN(C7CCC(NC(=O)c8ccc(Cl)c(N9CCC(=O)NC9=O)c8)CC7)CC6)nc5)nc34)cn2)CC1 (stereo not shown) [Compound C027]	9.05	–
CCN1CCC(n2cc(-c3c[nH]c4ncc(-c5ccc(OCCNC6CCC(NC(=O)c7ccc(Cl)c(N8CCC(=O)NC8=O)c7)CC6)nc5)nc34)cn2)CC1 (stereo not shown) [Compound C028]	8.62	–
CCN1CCC(n2cc(-c3c[nH]c4ncc(-c5ccc(N6CCN(C7CCC(NC(=O)c8ccc(Cl)c(N9CCC(=O)NC9=O)c8)CC7)CC6)cc5)nc34)cn2)CC1 (stereo not shown) [Compound C029]	8.80	–
CCN1CCC(n2cc(-c3c[nH]c4ncc(-c5ccc(N6CCN(C7CC8(CCN(C(=O)c9ccc(Cl)c(N%10CCC(=O)NC%10=O)c9)CC8)C7)CC6)cc5)nc34)cn2)CC1 [Compound C030]	9.70	–
CCN1CCC(n2cc(-c3c[nH]c4ncc(-c5ccc(OCCNC(=O)c6ccc(Cl)c(N7CCC(=O)NC7=O)c6)nc5)nc34)cn2)CC1 [Compound C033]	8.12	–
CCN1CCC(n2cc(-c3c[nH]c4ncc(-c5ccc(OCCNC(=O)c6ccc(Cl)c(N7CCC(=O)NC7=O)c6)c(C)c5)nc34)cn2)CC1 [Compound C034]	8.92	–
CCN1CCC(n2cc(-c3c[nH]c4ncc(-c5ccc(OCCNC(=O)c6ccc(Cl)c(N7CCC(=O)NC7=O)c6)cc5)nc34)cn2)CC1 [Compound C035]	8.60	–
CCN1CCC(n2cc(-c3c[nH]c4ncc(-c5cnn(C6CCN(C7CCC(NC(=O)c8ccc(Cl)c(N9CCC(=O)NC9=O)c8)CC7)CC6)c5)nc34)cn2)CC1 (stereo not shown) [Compound C036]	8.43	–
CCN1CCC(n2cc(-c3c[nH]c4ncc(-c5ccc(OCCCCNC(=O)c6ccc(Cl)c(N7CCC(=O)NC7=O)c6)nc5)nc34)cn2)CC1 [Compound C038]	7.66	–
CCN1CCC(n2cc(-c3c[nH]c4ncc(-c5ccc(OCCCNC(=O)c6ccc(Cl)c(N7CCC(=O)NC7=O)c6)c(C)c5)nc34)cn2)CC1 [Compound C039]	8.85	–
CCN1CCC(n2cc(-c3c[nH]c4ncc(-c5ccc(OCC(C)(C)CNC(=O)c6ccc(Cl)c(N7CCC(=O)NC7=O)c6)nc5)nc34)cn2)CC1 [Compound C041]	7.84	–
CCN1CCC(n2cc(-c3c[nH]c4ncc(-c5ccc(OCCCNC(=O)c6cccc(N7CCC(=O)NC7=O)c6)c(C)c5)nc34)cn2)CC1 [Compound C042]	8.68	–
CCN1CCC(n2cc(-c3c[nH]c4ncc(-c5cnc(OC(C)CNC(=O)c6ccc(Cl)c(N7CCC(=O)NC7=O)c6)c(C)c5)nc34)cn2)CC1 (stereo not shown) [Compound C043]	7.56	–
CCN1CCC(n2cc(-c3c[nH]c4ncc(-c5ccc(OC(C)CNC(=O)c6ccc(Cl)c(N7CCC(=O)NC7=O)c6)nc5)nc34)cn2)CC1 (stereo not shown) [Compound C044]	7.30	–
CCN1CCC(n2cc(-c3c[nH]c4ncc(-c5cnc(OCCN(C)C(=O)c6ccc(Cl)c(N7CCC(=O)NC7=O)c6)c(C)c5)nc34)cn2)CC1 [Compound C045]	8.29	–
CCN1CCC(n2cc(-c3c[nH]c4ncc(-c5ccc(N6CCC(CC7CCCN(C(=O)c8ccc(Cl)c(N9CCC(=O)NC9=O)c8)CC7)CC6)cc5)nc34)cn2)CC1 (stereo not shown) [Compound C122]	–	pEC50 [2]: 7.22
CCN1CCC(n2cc(-c3c[nH]c4ncc(-c5ccc(N6CCC(OC7CCN(C(=O)c8ccc(Cl)c(N9CCC(=O)NC9=O)c8)CC7)CC6)cc5)nc34)cn2)CC1 [Compound C131]	–	pEC50 [2]: 7.38; DC50 (human HPK1 [3]): 386 nM; Dmax (human HPK1 [3]): 52%
CCN1CCC(n2cc(-c3c[nH]c4ncc(-c5ccc(N6CCC(OC7CCN(C(=O)c8ccc(Cl)c(N9CCC(=O)NC9=O)c8)CC7)CC6)c(C)c5)nc34)cn2)CC1 [Compound C132]	–	pEC50 [2]: 7.46; DC50 (human HPK1 [3]): 29.3 nM; Dmax (human HPK1 [3]): 73%
CCN1CCC(n2cc(-c3c[nH]c4ncc(-c5ccc(N6CCC(OC7CCN(C(=O)c8ccc(Cl)c(N9CCC(=O)NC9=O)c8)CC7)CC6)c(F)c5)nc34)cn2)CC1 [Compound C134]	–	pEC50 [2]: 7.38; DC50 (human HPK1 [3]): 7.22 nM; Dmax (human HPK1 [3]): 78%
CCN1CCC(n2cc(-c3c[nH]c4ncc(-c5ccc(N6CCC(CC7CCN(C(=O)c8ccc(Cl)c(N9CCC(=O)NC9=O)c8)CC7)CC6)c(F)c5)nc34)cn2)CC1 [Compound C135]	–	pEC50 [2]: 7.36; DC50 (human HPK1 [3]): 176 nM; Dmax (human HPK1 [3]): 63%
CCN1CCC(n2cc(-c3c[nH]c4ncc(-c5ccc(N6CCC(C)(CN7CCN(C(=O)c8ccc(Cl)c(N9CCC(=O)NC9=O)c8)CC7)CC6)cc5)nc34)cn2)CC1 [Compound C139]	–	pEC50 [2]: 6.98; DC50 (human HPK1 [3]): 52.4 nM; Dmax (human HPK1 [3]): 80.9%
